System: Human umbilical vein endothelial cells (HUVEC)
Experiment: Cellular uptake of FITC-BSA released from PLGA/pSi microspheres (transwell, confocal)
Type: cell-based
Conditions: 7 days
Method: 40,000 HUVEC were seeded and cultured on a glass coverslip in a 12 well plate with 500 million PLGA/pSi microspheres loaded with FITC-BSA in a transwell on top of the cells. The media were changed every 3 days. Cellular uptake of FITC-BSA released from the PLGA/pSi microspheres was observed by confocal microscopy staining cells with fluorescent phalloidin (actin filaments) and DRAQ5 (nuclei) after fixation (10% formaldehyde).
Detection of the FITC-BSA loaded pSi particles was based on autofluorescence using 488 excitation laser and the cells were analyzed by using 561 and 632 excitation laser for pholloidin and DRAQ5 respectively. Images were acquired using a Leica MD 6000 upright confocal microscope equipped with a 63× oil immersion objective.

## BSA in solution: control group: bovine serum albumin in solution
  BSA accumulation in cells: did not show any BSA accommulation in cells
